The nature of series [1]: Inhibition of human CDC7/ASK using FITC-labelled MCM2 substrate in presence of 5 uM of ATP.
Series [2] can be described thus: Inhibition of human CDC7/ASK using FITC-labelled MCM2 substrate in presence of 1 mM of ATP.
Series [3] can be described thus: Inhibition of human CDC7/ASK using FITC-labelled MCM2 substrate preincubated for 30 mins followed by substrate addition and measured after 5 hrs in presence of 1 mM of ATP.
Series [4] addresses Cell division cycle 7-related protein kinase (Homo sapiens, UniProt O00311). The series is described as follows: Inhibition of CDC7 in human COLO205 cells assessed as reduction in MCM2 phosphorylation at S53 residue at 0.1 uM incubated for 48 hrs by Western blot analysis relative to control. Format: cell-based. Conditions: COLO 205. (In general: Immunoblotting shows a protein as a band on a membrane.)

The subject of the next series is COLO 205. In words: Induction of cell cycle arrest in human COLO205 cells assessed as accumulation of cells at sub-G1 phase at 1 uM incubated for 48 hrs by propidium iodide staining based flow cytometry analysis. Format: functional. For orientation: Flow cytometry measures light scatter and fluorescence of single cells or particles in a stream.
Series [5] can be described thus: Metabolic stability in human liver microsomes assessed as parent compound remaining after 30 mins. Format: ADME, Microsome. Conditions: microsomes, 0.5 h.
A short description of series [6]: Metabolic stability in mouse liver microsomes assessed as parent compound remaining after 30 mins. Format: ADME, Microsome. Conditions: microsomes, 0.5 h. (Liver microsomes are a subcellular fraction often used to study metabolism.)

By IC50 is commonly meant the point on the concentration scale where inhibition reaches its midpoint. As a reminder, the inhibition is the change of the read-out against control, counted positive when it falls.

Cell division cycle 7-related protein kinase, sequence (O00311 whole entry, looked up): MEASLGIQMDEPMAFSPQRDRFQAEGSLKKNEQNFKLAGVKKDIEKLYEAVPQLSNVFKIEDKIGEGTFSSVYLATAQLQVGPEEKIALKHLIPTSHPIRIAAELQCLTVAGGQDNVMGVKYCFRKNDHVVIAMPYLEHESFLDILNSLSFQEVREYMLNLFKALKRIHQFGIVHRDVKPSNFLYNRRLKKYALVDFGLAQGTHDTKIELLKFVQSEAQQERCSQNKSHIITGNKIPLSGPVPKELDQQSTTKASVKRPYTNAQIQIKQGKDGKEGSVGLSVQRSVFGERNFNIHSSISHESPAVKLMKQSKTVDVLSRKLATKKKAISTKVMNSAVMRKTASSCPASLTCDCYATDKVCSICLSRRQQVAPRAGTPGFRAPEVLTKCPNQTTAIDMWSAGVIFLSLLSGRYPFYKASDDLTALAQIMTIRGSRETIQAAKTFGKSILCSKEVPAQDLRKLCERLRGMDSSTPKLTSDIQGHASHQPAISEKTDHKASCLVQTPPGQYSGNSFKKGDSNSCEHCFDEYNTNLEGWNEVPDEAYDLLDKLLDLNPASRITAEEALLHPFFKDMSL

On to `CCOC(=O)C1=C(N2CCCCC2)O/C(=C\c2c[nH]c3ncccc23)C1=O`, for which the half-inhibitory concentration (IC50) in series [1] worked out at 16 nM; in series [2], 856 nM.
As to `CCOC(=O)C1=C(N2CCC(O)CC2)O/C(=C\c2c[nH]c3ncccc23)C1=O`, the concentration for half-maximal inhibition (IC50) came to 14 nM in series [1], 1260 nM in series [2] and 23 nM in series [3].
For the molecule `CCOC(=O)C1=C(NN2CCN(C)CC2)O/C(=C\c2c[nH]c3ncccc23)C1=O`, the IC50 in series [1] was determined as 12 nM; in series [2] it was 1070 nM; in series [3] it was 4.5 nM. Further, the inhibition in series [4] turned out to be 63%. The Activity in the series on COLO 205 is 15.9%.
For the molecule `CCOC(=O)C1=C(N2CCC(CO)CC2)O/C(=C\c2c[nH]c3ncccc23)C1=O`, the results for the IC50 in series [1], in series [2] and in series [3] were 15 nM, 1340 nM and 10 nM, respectively.
In the case of `CCOC(=O)C1=C(N2CCOCC2)O/C(=C\c2c[nH]c3ncccc23)C1=O`, the IC50 in series [1] is 35 nM; in series [2], 2680 nM.
`CCOC(=O)C1=C(NN2CCOCC2)O/C(=C\c2c[nH]c3ncccc23)C1=O`: the IC50 in series [1] turned out to be 2.9 nM; in series [2], 364 nM; in series [3], 0.15 nM. In addition, the inhibition in series [4] is 70%. Also, the Activity in the series with COLO 205 came to 46.4%.
For the molecule `CCOC(=O)C1=C(Nc2ccccc2Cl)O/C(=C\c2c[nH]c3ncccc23)C1=O`, the half-inhibitory concentration (IC50) worked out at 2.4 nM in series [1], 278 nM in series [2] and 0.6 nM in series [3].
As to `CCOC(=O)C1=C(NN2CCCCCC2)O/C(=C\c2c[nH]c3ncccc23)C1=O`, the half-maximal inhibitory concentration (IC50) in series [1] came out at 5 nM; in series [2] it was 451 nM; in series [3], 0.9 nM. Also, in series [4], the inhibition came out at 100%. The Activity in the series with COLO 205 turned out to be 23.2%.
For `CCOC(=O)C1=C(NC2CCCC2)O/C(=C\c2c[nH]c3ncccc23)C1=O`, the IC50 amounted to 13 nM in series [1] and 1470 nM in series [2].
Take `CCOC(=O)C1=C(NN(C)C2CCCCC2)O/C(=C\c2c[nH]c3ncccc23)C1=O`: the half-maximal inhibitory concentration (IC50) was 5.9 nM in series [1], 410 nM in series [2] and 2 nM in series [3]. Moreover, in series [4], the inhibition worked out at 35%. The Activity with COLO 205 is on record as 33%.
`CCOC(=O)C1=C(NC2CCN(C)CC2)O/C(=C\c2c[nH]c3ncccc23)C1=O`: the IC50 in series [1] was 93 nM.
As to `CCOC(=O)C1=C(NC2CCCCC2)O/C(=C\c2c[nH]c3ncccc23)C1=O`, the IC50 was 7.7 nM in series [1], 667 nM in series [2] and 53 nM in series [3].
In the same order, the values of `CCOC(=O)C1=C(N(C)C2CCCCC2)O/C(=C\c2c[nH]c3ncccc23)C1=O` are 9.5 nM, 954 nM and 23 nM.
Consider `CCOC(=O)C1=C(NC(C)C)O/C(=C\c2c[nH]c3ncccc23)C1=O`, for which the half-maximal inhibitory concentration (IC50) in series [1] was determined as 21 nM.
Take `CCOC(=O)C1=C(NN2CCN(CCO)CC2)O/C(=C\c2c[nH]c3ncccc23)C1=O`: the IC50 in series [1] was 10 nM; in series [2] it was 543 nM; in series [3] it was 1.3 nM. Also, the inhibition in series [4] stood at 18%. Besides, the Activity with COLO 205 was determined as 0%.
`CCOC(=O)C1=C(N2CCCN(C)CC2)O/C(=C\c2c[nH]c3ncccc23)C1=O`: the IC50 in series [1] was 133 nM; in series [2] it was above 10000 nM; in series [3], above 10000 nM.
For `CCOC(=O)C1=C(N2CCCCCC2)O/C(=C\c2c[nH]c3ncccc23)C1=O`, the figures for the IC50 in series [1], in series [2] and in series [3] were 5.6 nM, 394 nM and 3.9 nM, respectively. The Stability entry in series [5] and in series [6] was “Unstable” throughout.
`CCNC1=C(C(=O)OCC)C(=O)/C(=C/c2c[nH]c3ncccc23)O1`: in series [1], the half-inhibitory concentration (IC50) was found to be 32 nM.
Regarding `CCOC(=O)C1=C(NN(CC)CC)O/C(=C\c2c[nH]c3ncccc23)C1=O`, the IC50 turned out to be 6.9 nM in series [1], 396 nM in series [2] and 2.4 nM in series [3]. Moreover, the inhibition in series [4] was 67%. Moreover, the Activity with COLO 205 worked out at 14.5%.
Take `CCOC(=O)C1=C(NCCN(C)C)O/C(=C\c2c[nH]c3ncccc23)C1=O`: in series [1], the IC50 came out at 538 nM.
`CCOC(=O)C1=C(NN2CCCC2)O/C(=C\c2c[nH]c3ncccc23)C1=O`: the figures for the half-inhibitory concentration (IC50) in series [1], in series [2] and in series [3] were 6.9 nM, 694 nM and 1.1 nM, respectively. In addition, in series [4], the inhibition is 100%. Moreover, the Activity with COLO 205 stood at 17.4%.
Turning to `CCOC(=O)C1=C(NCCOC)O/C(=C\c2c[nH]c3ncccc23)C1=O`, the IC50 in series [1] was 84 nM; in series [3], above 10000 nM.
As for `CCOC(=O)C1=C(N2CCN(CCO)CC2)O/C(=C\c2c[nH]c3ncccc23)C1=O`, the half-inhibitory concentration (IC50) in series [1] is 72 nM; in series [2] it was 6010 nM.

The values above are taken from ChEMBL document CHEMBL4828769, “Discovery of AS-0141, a Potent and Selective Inhibitor of CDC7 Kinase for the Treatment of Solid Cancers” (J Med Chem, 2021).
